Experimental data taken from ChEMBL document CHEMBL1201862, “PubChem BioAssay data set” (2004).
Each block holds one compound with its values, some of them ahead of it. Active and inactive are the calls of the source.

Assays:
[1] = target: T1, Bcl-2-related protein A1 (Mus musculus, UniProt Q07440); type: functional;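 also: confirmatory dose–response counterscreen on Bfl-1, used to check hits from a UBC13 polyubiquitin inhibitor campaign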
T1 sequence (Q07440 whole entry): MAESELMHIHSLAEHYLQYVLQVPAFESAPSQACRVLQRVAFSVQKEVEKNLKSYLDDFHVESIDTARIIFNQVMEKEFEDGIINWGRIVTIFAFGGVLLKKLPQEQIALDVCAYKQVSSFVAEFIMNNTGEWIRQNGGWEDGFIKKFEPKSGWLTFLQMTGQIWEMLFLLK

[2] = target: Glutathione-S-transferase (Schistosoma japonicum, UniProt Q26513); assay: GST-antibody interaction or FRET quenching – biochemical, TR-FRET, artefact control for Vif-APOBEC3G degradation inhibitor project, dose response (AID 1117362); type: functional
[3] = target: Heat shock 70 kDa protein 1A (Homo sapiens, UniProt P0DMV8); assay: inhibition of Hsp70 binding activity – biochemical, fluorescence polarization, SAR follow-up (AID 1072)
[4] = target: T2, Ubiquitin-conjugating enzyme E2 N (Homo sapiens, UniProt P61088); type: functional
T2 sequence (P61088 whole entry): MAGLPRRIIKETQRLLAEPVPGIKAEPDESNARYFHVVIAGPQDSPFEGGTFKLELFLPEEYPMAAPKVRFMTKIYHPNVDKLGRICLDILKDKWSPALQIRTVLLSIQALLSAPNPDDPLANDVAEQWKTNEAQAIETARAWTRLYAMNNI

[5] = target: T3, ORF 73 (Human herpesvirus 8, UniProt O40947); assay: KSHV LANA DNA-binding disruption – biochemical, fluorescence polarization, cherry-picked samples, dose response (AID 504725); design: species or system Human gammaherpesvirus 8;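 also: fluorescence polarization of a labeled DNA duplex reporting LANA DNA binding; potency is for inhibitors that block LANA binding to the DNA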
T3 sequence (O40947 whole entry): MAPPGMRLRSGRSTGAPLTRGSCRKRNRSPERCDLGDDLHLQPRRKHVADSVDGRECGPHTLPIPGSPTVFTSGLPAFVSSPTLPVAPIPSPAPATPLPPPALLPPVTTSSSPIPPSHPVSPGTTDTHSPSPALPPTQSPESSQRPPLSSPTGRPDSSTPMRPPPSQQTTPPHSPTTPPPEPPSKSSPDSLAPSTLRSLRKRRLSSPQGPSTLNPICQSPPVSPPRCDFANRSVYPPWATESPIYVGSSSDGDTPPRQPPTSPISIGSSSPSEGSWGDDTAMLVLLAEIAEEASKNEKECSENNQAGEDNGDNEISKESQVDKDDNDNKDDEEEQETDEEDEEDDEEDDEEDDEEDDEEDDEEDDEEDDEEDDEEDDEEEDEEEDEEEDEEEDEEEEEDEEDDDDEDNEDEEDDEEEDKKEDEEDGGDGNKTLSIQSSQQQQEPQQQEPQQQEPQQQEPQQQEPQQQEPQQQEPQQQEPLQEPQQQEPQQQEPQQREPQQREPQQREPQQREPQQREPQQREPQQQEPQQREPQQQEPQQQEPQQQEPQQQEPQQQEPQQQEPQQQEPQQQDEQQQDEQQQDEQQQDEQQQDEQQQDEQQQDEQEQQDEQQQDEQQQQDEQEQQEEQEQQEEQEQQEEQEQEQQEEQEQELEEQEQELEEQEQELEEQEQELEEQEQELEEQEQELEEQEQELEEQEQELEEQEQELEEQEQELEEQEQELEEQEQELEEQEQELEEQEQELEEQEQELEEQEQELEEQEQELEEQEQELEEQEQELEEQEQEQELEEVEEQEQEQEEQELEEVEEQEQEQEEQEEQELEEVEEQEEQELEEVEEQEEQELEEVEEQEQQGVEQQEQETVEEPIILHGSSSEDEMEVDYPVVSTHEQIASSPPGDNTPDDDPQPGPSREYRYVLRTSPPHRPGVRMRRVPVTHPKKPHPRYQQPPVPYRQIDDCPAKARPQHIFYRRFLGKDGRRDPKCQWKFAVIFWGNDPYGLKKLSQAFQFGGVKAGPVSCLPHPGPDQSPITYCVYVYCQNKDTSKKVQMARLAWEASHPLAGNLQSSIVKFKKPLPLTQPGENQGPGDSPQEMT

[6] = target: Heat shock cognate 71 kDa protein (Homo sapiens, UniProt P11142); assay: In Vitro Hsc70 Dose Response Fluorescence Polarization Assay. [Related pubchem assays: 1072 ]
[7] = target: T4, Tyrosine-protein phosphatase non-receptor type 7 (Homo sapiens, UniProt P35236); type: functional
T4 sequence (P35236 whole entry): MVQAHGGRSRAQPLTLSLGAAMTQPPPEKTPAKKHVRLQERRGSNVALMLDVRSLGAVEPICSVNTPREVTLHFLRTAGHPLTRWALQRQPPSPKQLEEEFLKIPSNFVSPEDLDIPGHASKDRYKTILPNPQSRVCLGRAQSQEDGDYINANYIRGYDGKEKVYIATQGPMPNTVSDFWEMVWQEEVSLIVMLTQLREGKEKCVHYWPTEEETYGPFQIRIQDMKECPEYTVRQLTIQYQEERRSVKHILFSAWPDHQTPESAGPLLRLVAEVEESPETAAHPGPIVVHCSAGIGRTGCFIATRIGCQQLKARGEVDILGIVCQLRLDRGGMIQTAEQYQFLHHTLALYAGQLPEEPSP

[8] = target: Voltage-gated N-type calcium channel alpha-1B subunit/Amyloid beta A4 precursor protein-binding family A member 1 (Homo sapiens, UniProt Q00975+Q02410); type: protein assay
Sequence of Voltage-gated N-type calcium channel alpha-1B subunit/Amyloid beta A4 precursor protein-binding family A member 1 (Q00975 whole entry): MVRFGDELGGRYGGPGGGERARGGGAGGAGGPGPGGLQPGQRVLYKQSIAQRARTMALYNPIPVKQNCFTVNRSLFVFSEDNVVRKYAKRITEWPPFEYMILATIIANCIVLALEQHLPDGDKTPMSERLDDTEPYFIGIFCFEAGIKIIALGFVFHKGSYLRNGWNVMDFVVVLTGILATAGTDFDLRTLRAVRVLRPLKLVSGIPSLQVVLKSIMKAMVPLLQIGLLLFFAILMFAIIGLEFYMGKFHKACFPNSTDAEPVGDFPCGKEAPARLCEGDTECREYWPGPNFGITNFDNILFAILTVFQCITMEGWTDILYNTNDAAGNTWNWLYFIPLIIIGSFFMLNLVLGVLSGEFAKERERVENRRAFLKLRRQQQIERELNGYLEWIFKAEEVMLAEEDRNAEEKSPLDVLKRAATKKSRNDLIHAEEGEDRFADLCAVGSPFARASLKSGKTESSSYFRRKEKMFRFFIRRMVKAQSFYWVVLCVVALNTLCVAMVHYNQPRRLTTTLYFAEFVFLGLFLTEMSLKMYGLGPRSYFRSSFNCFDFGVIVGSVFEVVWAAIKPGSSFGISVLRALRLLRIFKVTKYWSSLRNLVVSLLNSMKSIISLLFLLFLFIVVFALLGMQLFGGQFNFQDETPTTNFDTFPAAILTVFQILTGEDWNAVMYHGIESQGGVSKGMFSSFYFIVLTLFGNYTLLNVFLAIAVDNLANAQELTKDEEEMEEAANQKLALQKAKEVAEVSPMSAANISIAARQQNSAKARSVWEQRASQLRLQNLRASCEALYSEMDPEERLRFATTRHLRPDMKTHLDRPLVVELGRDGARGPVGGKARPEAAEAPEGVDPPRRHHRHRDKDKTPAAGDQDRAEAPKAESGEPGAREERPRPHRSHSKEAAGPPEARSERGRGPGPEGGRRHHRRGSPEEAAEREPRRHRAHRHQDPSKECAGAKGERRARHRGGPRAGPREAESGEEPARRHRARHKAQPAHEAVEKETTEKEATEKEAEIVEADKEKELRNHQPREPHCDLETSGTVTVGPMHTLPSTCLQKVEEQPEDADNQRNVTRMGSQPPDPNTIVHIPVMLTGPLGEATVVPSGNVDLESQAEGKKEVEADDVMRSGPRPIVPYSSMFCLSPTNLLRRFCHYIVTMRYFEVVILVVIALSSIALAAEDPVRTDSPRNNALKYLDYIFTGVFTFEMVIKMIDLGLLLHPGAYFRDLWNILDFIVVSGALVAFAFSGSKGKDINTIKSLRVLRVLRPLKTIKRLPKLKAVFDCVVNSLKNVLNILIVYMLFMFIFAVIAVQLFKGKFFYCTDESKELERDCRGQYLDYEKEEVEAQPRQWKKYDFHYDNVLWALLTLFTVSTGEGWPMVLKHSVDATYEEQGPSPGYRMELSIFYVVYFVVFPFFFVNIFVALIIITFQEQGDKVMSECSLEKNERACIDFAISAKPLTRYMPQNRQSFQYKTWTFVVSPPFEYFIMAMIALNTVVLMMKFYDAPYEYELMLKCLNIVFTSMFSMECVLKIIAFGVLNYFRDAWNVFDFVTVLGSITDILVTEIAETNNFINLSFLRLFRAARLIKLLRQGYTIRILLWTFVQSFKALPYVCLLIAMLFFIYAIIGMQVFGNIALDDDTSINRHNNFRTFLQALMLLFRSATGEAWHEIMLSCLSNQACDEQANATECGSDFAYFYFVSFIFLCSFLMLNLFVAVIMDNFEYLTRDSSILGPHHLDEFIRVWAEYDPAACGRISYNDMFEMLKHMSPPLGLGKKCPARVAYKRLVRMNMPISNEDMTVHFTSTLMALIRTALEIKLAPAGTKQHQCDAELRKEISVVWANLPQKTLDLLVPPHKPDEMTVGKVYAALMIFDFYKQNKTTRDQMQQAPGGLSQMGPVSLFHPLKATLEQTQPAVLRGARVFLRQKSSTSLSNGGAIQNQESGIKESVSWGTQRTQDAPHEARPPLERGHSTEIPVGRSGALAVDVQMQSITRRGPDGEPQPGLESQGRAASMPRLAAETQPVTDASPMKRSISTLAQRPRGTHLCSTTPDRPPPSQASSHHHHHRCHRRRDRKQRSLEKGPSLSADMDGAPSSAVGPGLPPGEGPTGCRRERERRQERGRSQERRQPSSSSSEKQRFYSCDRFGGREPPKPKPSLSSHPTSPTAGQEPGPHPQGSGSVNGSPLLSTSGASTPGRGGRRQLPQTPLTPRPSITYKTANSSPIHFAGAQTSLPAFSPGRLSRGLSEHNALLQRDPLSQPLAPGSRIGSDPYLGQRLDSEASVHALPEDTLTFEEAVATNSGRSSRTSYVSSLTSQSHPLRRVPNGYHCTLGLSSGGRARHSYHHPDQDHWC
Sequence of Voltage-gated N-type calcium channel alpha-1B subunit/Amyloid beta A4 precursor protein-binding family A member 1 (Q02410 whole entry): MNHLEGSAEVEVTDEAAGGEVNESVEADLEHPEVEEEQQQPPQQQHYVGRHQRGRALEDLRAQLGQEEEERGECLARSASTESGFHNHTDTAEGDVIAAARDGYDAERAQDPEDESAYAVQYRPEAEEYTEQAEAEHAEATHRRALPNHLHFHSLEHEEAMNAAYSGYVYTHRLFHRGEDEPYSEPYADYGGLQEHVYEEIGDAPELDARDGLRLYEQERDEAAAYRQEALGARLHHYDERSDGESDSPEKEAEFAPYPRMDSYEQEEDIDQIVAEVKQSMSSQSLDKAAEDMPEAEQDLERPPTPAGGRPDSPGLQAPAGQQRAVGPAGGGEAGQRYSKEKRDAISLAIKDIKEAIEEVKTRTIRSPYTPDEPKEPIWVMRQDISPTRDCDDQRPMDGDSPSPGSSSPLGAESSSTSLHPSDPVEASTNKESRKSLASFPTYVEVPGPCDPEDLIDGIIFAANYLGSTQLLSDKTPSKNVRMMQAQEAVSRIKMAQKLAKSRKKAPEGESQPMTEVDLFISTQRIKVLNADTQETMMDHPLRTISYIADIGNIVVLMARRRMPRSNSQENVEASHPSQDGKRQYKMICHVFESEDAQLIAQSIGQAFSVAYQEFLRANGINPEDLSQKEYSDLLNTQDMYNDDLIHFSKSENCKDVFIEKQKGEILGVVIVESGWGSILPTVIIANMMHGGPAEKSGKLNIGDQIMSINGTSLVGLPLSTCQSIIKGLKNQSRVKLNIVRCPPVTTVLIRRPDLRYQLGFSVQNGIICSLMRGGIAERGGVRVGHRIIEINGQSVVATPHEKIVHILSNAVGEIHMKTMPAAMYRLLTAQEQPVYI

[9] = target: Calcium/calmodulin-dependent protein kinase type II subunit alpha (Homo sapiens, UniProt Q9UQM7); assay: Navigating the Kinome. Panel member name: CAMK2A; type: functional
Sequence of Calcium/calmodulin-dependent protein kinase type II subunit alpha (Q9UQM7 whole entry): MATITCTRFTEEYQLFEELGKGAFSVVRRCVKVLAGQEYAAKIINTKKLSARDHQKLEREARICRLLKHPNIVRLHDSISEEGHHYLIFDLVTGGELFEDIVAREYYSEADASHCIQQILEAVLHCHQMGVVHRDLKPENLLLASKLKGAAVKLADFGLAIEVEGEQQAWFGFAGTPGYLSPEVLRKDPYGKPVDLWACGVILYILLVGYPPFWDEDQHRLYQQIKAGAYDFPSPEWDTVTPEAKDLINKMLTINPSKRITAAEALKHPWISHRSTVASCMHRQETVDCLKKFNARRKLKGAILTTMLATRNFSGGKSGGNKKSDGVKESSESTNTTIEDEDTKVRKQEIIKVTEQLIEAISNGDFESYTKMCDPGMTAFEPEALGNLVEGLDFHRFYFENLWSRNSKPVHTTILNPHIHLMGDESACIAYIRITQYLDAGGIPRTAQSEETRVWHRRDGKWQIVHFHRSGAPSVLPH

[10] = target: Tyrosine-protein kinase Lck (Homo sapiens, UniProt P06239); type: functional;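 also: lck was assayed as one member of a kinase panel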
[11] = target: Homeodomain-interacting protein kinase 4 (Homo sapiens, UniProt Q8NE63); type: functional
[12] = target: Protein-tyrosine kinase 2-beta (Homo sapiens, UniProt Q14289); type: functional
[13] = target: Rho-associated protein kinase 2 (Homo sapiens, UniProt O75116); type: functional
[14] = target: Maternal embryonic leucine zipper kinase (Homo sapiens, UniProt Q14680); type: functional
[15] = target: Tyrosine-protein kinase Blk (Homo sapiens, UniProt P51451); type: functional;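 also: obtained as one member of a kinome-wide kinase assay panel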
Sequence of Tyrosine-protein kinase Blk (P51451 whole entry): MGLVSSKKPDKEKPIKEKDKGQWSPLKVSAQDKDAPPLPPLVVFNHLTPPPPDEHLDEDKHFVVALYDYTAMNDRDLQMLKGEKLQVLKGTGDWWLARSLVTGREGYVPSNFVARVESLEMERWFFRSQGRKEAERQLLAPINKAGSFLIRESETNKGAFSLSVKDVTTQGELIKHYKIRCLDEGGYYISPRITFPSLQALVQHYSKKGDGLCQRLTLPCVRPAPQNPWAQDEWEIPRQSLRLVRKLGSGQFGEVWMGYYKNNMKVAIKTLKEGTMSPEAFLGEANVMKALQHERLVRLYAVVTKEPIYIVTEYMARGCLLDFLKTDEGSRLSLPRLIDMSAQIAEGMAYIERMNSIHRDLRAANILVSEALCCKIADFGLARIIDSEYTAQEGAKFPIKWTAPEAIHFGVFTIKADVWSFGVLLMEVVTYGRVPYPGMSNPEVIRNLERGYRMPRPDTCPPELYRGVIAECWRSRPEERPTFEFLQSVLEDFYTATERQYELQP

[16] = target: SRSF protein kinase 1 (Homo sapiens, UniProt Q96SB4); type: functional;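 also: measured as one member of a kinome-wide kinase profiling panel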
[17] = target: Mitogen-activated protein kinase kinase kinase 10 (Homo sapiens, UniProt Q02779); assay: Navigating the Kinome. Panel member name: MAP3K10; type: functional
Sequence of Mitogen-activated protein kinase kinase kinase 10 (Q02779 whole entry): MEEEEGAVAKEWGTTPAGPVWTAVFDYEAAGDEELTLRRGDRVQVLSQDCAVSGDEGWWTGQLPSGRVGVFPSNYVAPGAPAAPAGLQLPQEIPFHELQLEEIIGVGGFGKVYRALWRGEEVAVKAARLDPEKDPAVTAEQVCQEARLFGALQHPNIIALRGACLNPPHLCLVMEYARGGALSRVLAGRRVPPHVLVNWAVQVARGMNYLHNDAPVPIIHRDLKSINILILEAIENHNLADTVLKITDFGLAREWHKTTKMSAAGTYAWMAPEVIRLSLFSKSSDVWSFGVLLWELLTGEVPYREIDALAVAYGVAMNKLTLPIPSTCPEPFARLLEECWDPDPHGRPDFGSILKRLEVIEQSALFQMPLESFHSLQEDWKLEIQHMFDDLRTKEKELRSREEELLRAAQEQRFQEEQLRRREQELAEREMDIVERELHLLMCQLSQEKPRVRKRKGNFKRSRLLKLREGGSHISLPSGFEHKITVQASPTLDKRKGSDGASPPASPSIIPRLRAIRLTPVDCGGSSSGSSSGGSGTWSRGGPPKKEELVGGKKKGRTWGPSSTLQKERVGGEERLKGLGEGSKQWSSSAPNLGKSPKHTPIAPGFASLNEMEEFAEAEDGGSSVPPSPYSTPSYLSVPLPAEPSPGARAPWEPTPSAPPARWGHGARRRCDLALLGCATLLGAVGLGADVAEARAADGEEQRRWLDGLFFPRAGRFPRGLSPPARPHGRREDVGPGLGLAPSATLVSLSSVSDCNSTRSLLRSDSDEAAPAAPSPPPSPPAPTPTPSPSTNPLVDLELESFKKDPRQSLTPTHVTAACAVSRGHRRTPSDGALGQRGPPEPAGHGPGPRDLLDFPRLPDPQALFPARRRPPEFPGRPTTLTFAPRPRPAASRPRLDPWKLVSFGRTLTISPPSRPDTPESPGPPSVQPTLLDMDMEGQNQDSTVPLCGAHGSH

[18] = target: Tyrosine-protein kinase receptor UFO (Homo sapiens, UniProt P30530); type: functional
[19] = target: Tyrosine-protein kinase Lyn (Homo sapiens, UniProt P07948); type: functional;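 also: lyn as one member of a kinase panel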
[20] = target: Cyclin-dependent kinase 2 (Homo sapiens, UniProt P24941); type: functional;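 also: CDK2 measured as one member of a broad kinome profiling panel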

Structure (SMILES): COc1cccc2c1NC(C(=O)O)C1CC=CC21 (stereo not given)
IC50 [1]: 1.1 µM (active)
IC50 [2]: > 100 µM (active)
IC50 [3]: 6.26 µM (active)
IC50 [4]: > 20 µM (inactive)
AC50 [5]: 35.8 µM (active)
IC50 [6]: 25.2 µM (active)
IC50 [7]: 11.3 µM (active)
IC50 [8]: 13.2 µM (active)

Ki [9]: 1 µM (active)
Ki [10]: > 6.31 µM (inactive)
Structure (SMILES): COc1c(-c2nc3ccccc3[nH]2)c(O)cc2oc(C)cc(=O)c12

Ki [11]: 0.0398 µM (active)
Ki [12]: > 1.58 µM (inactive)
pKi [13]: 5.6
Ki [14]: 2 µM (active)
Ki [15]: 0.316 µM (active)
Ki [16]: 7.94 µM (active)
Ki [17]: > 3.16 µM (inactive)
Ki [18]: 0.126 µM (active)
Ki [19]: 0.251 µM (active)
Ki [20]: > 7.94 µM (inactive)
Structure (SMILES): Cc1ccc(F)c(NC(=O)Nc2ccc(-c3cccc4[nH]nc(N)c34)cc2)c1 [LINIFANIB]
